Results as given in patent publication US20230340417A1, “DEFINED MATRIX FOR THE DIFFERENTIATION OF ISLETS” (Washington University, priority 2022, published 2023).
“Also recorded” adds a separate entry of the source.

B1: vitronectin: extracellular matrix protein tested as plate coating for differentiation (protein, UniProt P04004 20-478, looked up)
Vitronectin: DQESCKGRCTEGFNVDKKCQCDELCSYYQSCCTDYTAECKPQVTRGDVFTMPEDEYTVYDDGEEKNNATVHEQVGGPSLTSDLQAQSKGNPEQTPVLKPEEEAPAPEVGASKPEGIDSRPETLHPGRPQPPAEEELCSGKPFDAFTDLKNGSLFAFRGQYCYELDEKAVRPGYPKLIRDVWGIEGPIDAAFTRINCQGKTYLFKGSQYWRFEDGVLDPDYPRNISDGFDGIPDNVDAALALPAHSYSGRERVYFFKGKQYWEYQFQHQPSQEECEGSSLSAVFEHFAMMQRDSWEDIFELLFWGRTSAGTRQPQFISRDWHGVPGQVDAAMAGRIYISGMAPRPSLAKKQRFRHRNRKGYRSQRGHSRGRNQNSRRPSRATWLSLFSSEESNLGANNYDDYRMDWLVPATCEPIQSVFFFSGDKYYRVNLRTRRVDTVDPPYPRSIAQYWLGCPAPGHL

How the values were obtained:
[1] = test system: human pluripotent stem cells; assay: SC-β cell differentiation on different extracellular matrix proteins; format: cell-based; settings: for outcome of differentiation of stem cells to SC-β cells: cells plated on the ECM when seeding the differentiation
Experimental: (§1) Experiment goal: test if our SC-β cell differentiation method works with different extracellular matrix proteins. Stem cells were propagated on Matrigel as normal. Cells were plated on the different ECMs when seeding the differentiations. For the combinations of laminin 111 and collagen IV, the total protein concentration was kept the same. The ratio of these was changed from 3:1, 1:1, and 1:3. Some of the ECMs induced the cells to form clusters on the plate in stage 6, so some clusters were scrapped off instead of aggregating them for comparison. The differentiation protocol utilized was previously published (Hogrebe et al Nature Biotechnology 2020; Hogrebe et al Nature Protocols 2021; and WO 2019/222487) and modified to include different ECM proteins.

stem cells = assay: Adhesion of cells to plates coated with different extracellular matrix proteins during differentiation; format: cell-based, human; settings: for adherence of seeding stem cells to the ECM to start differentiation: FIG. 11; for attachment of cells to the plate in early differentiation stages: stage 1 and 2, ECM protein used alone; for time at which cells came off the plate: stage/day of protocol (s = stage, d = day)
Experimental: as §1

Molecule | outcome of differentiation of stem cells to SC-β cells [1] | adherence of seeding stem cells to the ECM to start differentiation (stem cells) | attachment of cells to the plate in early differentiation stages (stem cells) | adhesion of endocrine cells to the plate (stem cells; stage 6) | time at which cells came off the plate (stem cells) | attachment of cells to the plate in early differentiation stages (stem cells; listed as collagen I) | cell types obtained ([1]; differentiations done on vitronectin only, FIG. 12)
fibronectin | failed | do not effectively adhere | – | – | – | – | –
collagen IV: extracellular matrix protein tested as plate coating, alone or combined with laminin 111 | – | – | detached completely; also recorded: monolayer of stem cells detaching from the plate | makes the endocrine cells stick to the plate | started coming off on s1d3 | – | –
collagen 1: extracellular matrix protein tested as plate coating for differentiation | – | weren't as adhesive | detached completely | – | came off on s2d1 | monolayer of stem cells detaching from the plate | –
B1 | failed | do effectively adhere | – | – | – | – | a lot of off-target cell types and no endocrine cells
